Literature values in patent US20250235471A1, “OIL-IN-WATER EMULSION FOR INHALATION ADMINISTRATION COMPRISING CANNABIDIOL(CBD)” (Incannex Healthcare Limited, priority 2021, published 2025).

C=C(C)[C@@H]1CCC(C)=C[C@H]1c1c(O)cc(CCCCC)cc1O [CBD, cannabidiol]
aqueous solubility: < 10 µg/mL
estimated oil/water partition coefficient (Log P) (estimated): 6-7
